Data taken from patent US11072632B2, “Inhibitors of 17β-HSD1, 17β-HSD3 and 17β-HSD10” (UNIVERSITÉ LAVAL, priority 2011, dated 2021).
Like-named read-outs stand apart in the source and are kept apart here.

How the values were obtained:
17β-HSD10 = biological target: T1, 17β-HSD10 (Homo sapiens, UniProt Q99714); assay: Inhibition of 17β-HSD10 in stably transfected HEK-293 whole cells (E2 into E1); type: cell-based
T1 construct: expressed in transfected cells
T1 sequence (Q99714 1-261): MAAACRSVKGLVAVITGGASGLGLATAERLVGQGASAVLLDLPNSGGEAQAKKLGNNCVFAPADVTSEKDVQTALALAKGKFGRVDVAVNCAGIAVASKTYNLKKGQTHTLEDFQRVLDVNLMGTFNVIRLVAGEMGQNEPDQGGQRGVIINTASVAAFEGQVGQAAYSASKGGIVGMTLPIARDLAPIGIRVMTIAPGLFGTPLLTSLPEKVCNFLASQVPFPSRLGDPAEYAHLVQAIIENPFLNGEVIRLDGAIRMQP

17β-HSD3 [1] = biological target: T2, 17β-HSD3 (Homo sapiens, UniProt P37058); assay: Inhibition of 17β-HSD3 in intact HEK-293 cells; type: cell-based
T2 construct: expressed in transfected cells; host or cells: HEK-293 (homogenate)
T2 sequence (P37058 1-310): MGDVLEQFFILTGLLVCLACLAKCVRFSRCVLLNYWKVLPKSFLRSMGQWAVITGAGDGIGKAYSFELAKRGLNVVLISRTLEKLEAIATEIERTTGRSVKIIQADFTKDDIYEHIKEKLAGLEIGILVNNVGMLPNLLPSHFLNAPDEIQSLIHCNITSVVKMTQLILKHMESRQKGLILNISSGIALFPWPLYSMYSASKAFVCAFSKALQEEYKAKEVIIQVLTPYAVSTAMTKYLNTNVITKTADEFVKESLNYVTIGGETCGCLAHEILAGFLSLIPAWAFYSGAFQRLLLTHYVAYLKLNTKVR

17β-HSD3 [2] = biological target: T2, 17β-HSD3; assay: Inhibition of 17β-HSD3 in homogenated HEK-293 cells; type: biochemical
17β-HSD1 = biological target: T3, 17β-HSD1 (Homo sapiens, UniProt P14061); assay: Inhibition of 17β-HSD1 in T-47D intact cells (E1 into E2); type: cell-based; conditions: T47D; for inhibition at 1 µM: read-out: Inhibition (1 μM)
T3 construct: endogenous in cells; host or cells: T-47D
T3 sequence (P14061 1-328): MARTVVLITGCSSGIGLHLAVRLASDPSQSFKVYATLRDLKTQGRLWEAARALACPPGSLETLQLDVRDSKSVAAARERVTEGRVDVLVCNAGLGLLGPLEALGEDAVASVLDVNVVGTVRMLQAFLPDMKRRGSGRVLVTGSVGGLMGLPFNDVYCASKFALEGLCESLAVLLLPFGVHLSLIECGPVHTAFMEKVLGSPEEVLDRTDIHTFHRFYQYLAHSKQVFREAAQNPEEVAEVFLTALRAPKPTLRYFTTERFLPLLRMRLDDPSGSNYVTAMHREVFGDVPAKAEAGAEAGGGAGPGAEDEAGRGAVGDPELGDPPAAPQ
Experimental: T-47D cells were seeded in a 24-well plate (3000 cells/well) in medium supplemented with insulin (50 ng/mL) and 5% dextran-coated charcoal treated FBS rather than 10% FBS to remove remaining hormones. […] Each inhibitor was assessed in triplicate. After incubation, the culture medium was removed and labelled steroids (E1 and E2) extracted with 1 mL of diethyl ether. The organic phases were separated and evaporated to dryness using nitrogen. Residues were dissolved in dichloromethane and dropped on silica gel thin layer chromatography plates (EMD Chemicals Inc., Gibbstown, N.J., USA) and eluted with a toluene/acetone (4:1) solvent system. Substrate [^14C]-E1 and metabolite [^14C]-E2 were identified by comparison with reference steroids and quantified using a Storm 860 system (Molecular Dynamics, Sunnyvale, Calif., USA).
T-47D cells were seeded in a 24-well plate (3000 cells/well) in 990 μL of medium supplemented with insulin (50 ng/mL) and 5% dextran-coated charcoal-treated FBS, which was used rather than untreated 10% FBS, to remove the remaining steroid hormones. […] The final concentration of ethanol in the well was adjusted to 0.1%. Additionally, 5 μL of a solution of [^14C]-estrone (American Radiolabeled Chemicals, Inc., St. Louis, Mo., USA) was added to obtain a final concentration of 60 nM. […] After incubation, the culture medium was removed and labeled steroids (E1 and E2) were extracted with 1 mL of diethyl ether. The organic phases were evaporated to dryness with nitrogen. Residues were dissolved in dichloromethane and dropped on silica gel thin layer chromatography plates (EMD Chemicals Inc., Gibbstown, N.J., USA) and eluted with toluene/acetone (4:1) as solvent system. Substrate [^14C]-E1 and metabolite [^14C]-E2 were identified by comparison with reference steroids (E1 and E2) and quantified using the Storm 860 system (Molecular Dynamics, Sunnyvale, Calif., USA).

[3] = Table 2 (17β-HSD1), [14C]-E1 60 nM, T-47D intact cells, 0.1 μM, read-out: Inhibition (0.1 μM)
[4] = Table 2 (17β-HSD1), [14C]-E1 60 nM, T-47D intact cells, 1 μM
[5] = read-out: Homo (%) (0.01 μM), Table 4
[6] = read-out: Homo (%) (0.1 μM), Table 4
[7] = read-out: Homo (%) (1.0 μM), Table 4, 1.0 μM

C[C@]12CC[C@](O)(CN3CCN(Cc4ccccc4)CC3)C[C@@H]1CC[C@@H]1[C@@H]2CC[C@]2(C)C(=O)CC[C@@H]12 [Compound 7j, (3α,5α)-3-[(4-benzylpiperazin-1-yl)methyl]-3-hydroxyandrostan-17-one]
inhibition at 1 µM (17β-HSD10; HEK293, read-out: Inhibition (%) at 1 μM): 57% | inhibition at 0.1 µM (17β-HSD3 [1]; HEK293, 1 h, read-out: Intact cells (%) (0.1 μM), Table 2 (17β-HSD3), 0.1 μM): 37% | inhibition at 0.1 µM (17β-HSD3 [1]; HEK293, 1 h, read-out: Intact cells (%) (0.1 μM), Table 3, 0.1 μM): 38% | inhibition at 1 µM (17β-HSD3 [1]; HEK293, 1 h, read-out: Intact cells (%) (1 μM), Table 2 (17β-HSD3), 1 μM): 80% | inhibition at 0.01 µM (17β-HSD3 [2]; Table 2 (17β-HSD3), [14C]-Δ4-dione 50 nM into [14C]-T, read-out: Homo (%) (0.01 μM)): 35% | inhibition at 0.01 µM (17β-HSD3 [2]; read-out: Homo (%) (0.01 μM), Table 3): 36% | inhibition at 0.1 µM (17β-HSD3 [2]; read-out: Homo (%) (0.1 μM), Table 2 (17β-HSD3)): 72% | inhibition at 0.1 µM (17β-HSD3 [2]; read-out: Homo (%) (0.1 μM), Table 3): 74% | inhibition at 1 µM (17β-HSD3 [2]; read-out: Homo (%) (1 μM), Table 2 (17β-HSD3), 1 μM): 90%

C[C@]12CC[C@@H]3c4ccc(CCCl)cc4CC[C@H]3[C@@H]1C[C@H](Cc1cccc(C(N)=O)c1)[C@@H]2O [Compound 9, 3-{[(16β,17β)-3-(2-chloroethyl)-17-hydroxyestra-1(10),2,4-trien-16-yl]methyl}benzamide]
inhibition at 0.1 µM (17β-HSD1; read-out: Inhibition (0.1 μM)): 55%

C[C@]12CC[C@@H]3c4ccc(CCI)cc4CC[C@H]3[C@@H]1C[C@H](Cc1cccc(C(N)=O)c1)[C@@H]2O [Compound 10, 3-{[(16β,17β)-17-hydroxy-3-(2-iodoethyl)estra-1(10),2,4-trien-16-yl]methyl}benzamide]
inhibition at 0.1 µM (17β-HSD1; read-out: Inhibition (0.1 μM)): 7%

C[C@]12CC[C@](O)(CN3CCN(Cc4cccc(C(F)(F)F)c4)CC3)C[C@@H]1CC[C@@H]1[C@@H]2CC[C@]2(C)C(=O)CC[C@@H]12 [Compound 10a, (3α,5α)-3-hydroxy-3-({4-[3-(trifluoromethyl)benzyl]piperazin-1-yl}methyl)androstan-17-one]
inhibition at 1 µM (17β-HSD10; HEK293, [14C]-E2 (1 μM) into [14C]-E1, intact HEK-293 cells, 1 μM, read-out: Inhibition (%) at 1 μM): 34% | inhibition at 0.1 µM (17β-HSD3 [1]; HEK293, 1 h, Table 3, 0.1 μM, read-out: Intact cells (%) (0.1 μM)): 52% | inhibition at 0.01 µM (17β-HSD3 [2]; Table 3, read-out: Homo (%) (0.01 μM)): 51% | inhibition at 0.1 µM (17β-HSD3 [2]; Table 3, read-out: Homo (%) (0.1 μM)): 88%

C[C@]12CC[C@@H]3c4ccc(OCCBr)cc4CC[C@H]3[C@@H]1C[C@H](Cc1cccc(C(N)=O)c1)[C@@H]2O [Compound 15, 3-{[(16β,17β)-3-(2-bromoethoxy)-17-hydroxyestra-1(10),2,4-trien-16-yl]methyl}benzamide]
inhibition at 0.1 µM (17β-HSD1; [3]): 39% | inhibition at 1 µM (17β-HSD1; [4]): 81%

C[C@]12CC[C@@H]3c4ccc(CCc5ccccc5)cc4CC[C@H]3[C@@H]1C[C@H](Cc1cccc(C(N)=O)c1)[C@@H]2O [Compound 19, 3-{[(16β,17β)-17-hydroxy-3-(2-phenylethyl)estra-1(10),2,4-trien-16-yl]methyl}benzamide]
inhibition at 0.1 µM (17β-HSD1; read-out: Inhibition (0.1 μM)): 13%

CCCN(CCC)CCN1C[C@]2(CC[C@@]3(C)[C@@H](CC[C@@H]4[C@@H]3CC[C@]3(C)C(=O)CC[C@@H]43)C2)OC1=O [Compound 23f, (3R,5S,8R,9S,10S,13S,14S)-3′-[2-(dipropylamino)ethyl]-10,13-dimethyltetradecahydro-2′H-spiro[cyclopenta[α]phenanthrene-3,5′-[1,3]oxazolidine]-2′,17(2H)-dione]
Intact cells (%) (0.1 μM), tested in another experiment (17β-HSD3 [1]; Table 4, footnote b, 0.1 μM): 8^b % | inhibition at 0.01 µM (17β-HSD3 [2]; [5]): 0% | inhibition at 0.1 µM (17β-HSD3 [2]; [6]): 10% | inhibition at 1 µM (17β-HSD3 [2]; [7]): 62%

CCCN(CCN1C[C@]2(CC[C@@]3(C)[C@@H](CC[C@@H]4[C@@H]3CC[C@]3(C)C(=O)CC[C@@H]43)C2)OC1=O)C(=O)CC [Compound 23g, N-{(3R,5S,8R,9S,10S,13S,14S)-10,13-dimethyl-2′,17-dioxohexadecahydro-3′H-spiro[cyclopenta[α]phenanthrene-3,5′-[1,3]oxazolidine-3′-yl]ethyl}-N-propylpropanamide]
inhibition at 0.1 µM (17β-HSD3 [1]; HEK293, 1 h, read-out: Intact cells (%) (0.1 μM), Table 4, 0.1 μM): 25% | inhibition at 0.01 µM (17β-HSD3 [2]; [5]): 0% | inhibition at 0.1 µM (17β-HSD3 [2]; [6]): 35% | inhibition at 1 µM (17β-HSD3 [2]; [7]): 80%

C[C@]12CC[C@@H]3c4ccc(CCCO)cc4CC[C@H]3[C@@H]1C[C@H](Cc1cccc(C(N)=O)c1)[C@@H]2O [Compound 24, 3-{[(16β,17β)-17-hydroxy-3-(3-hydroxypropyl)estra-1(10),2,4-trien-16-yl]methyl}benzamide]
inhibition at 0.1 µM (17β-HSD1; [3]): 16%

C[C@]12CC[C@@H]3c4ccc(CCCBr)cc4CC[C@H]3[C@@H]1C[C@H](Cc1cccc(C(N)=O)c1)[C@@H]2O [Compound 25, 3-{[(16β,17β)-3-(3-bromopropyl)-17-hydroxyestra-1(10),2,4-trien-16-yl]methyl}benzamide]
inhibition at 0.1 µM (17β-HSD1; read-out: Inhibition (0.1 μM)): 37% | inhibition at 1 µM (17β-HSD1): 82%

CNC(=O)Cc1ccc2c(c1)CC[C@@H]1[C@@H]2CC[C@]2(C)[C@@H](O)[C@@H](Cc3cccc(C(N)=O)c3)C[C@@H]12 [Compound 32, 3-{[(16β,17β)-17-hydroxy-3-[2-(methylamino)-2-oxoethyl]estra-1(10),2,4-trien-16-yl]methyl}benzamide]
inhibition at 0.1 µM (17β-HSD1; read-out: Inhibition (0.1 μM)): 5% | inhibition at 1 µM (17β-HSD1): 15%

CN(C)Cc1ccc2c(c1)CC[C@@H]1[C@@H]2CC[C@]2(C)[C@@H](O)[C@@H](Cc3cccc(C(N)=O)c3)C[C@@H]12 [Compound 40a, 3-{[(16β,17β)-3-[(dimethylamino)methyl]-17-hydroxyestra-1,3,5(10)-trien-16-yl]methyl}benzamide]
inhibition at 0.1 µM (17β-HSD1; [3]): 12% | inhibition at 1 µM (17β-HSD1; [4]): 49%

C[C@]12CC[C@@H]3c4ccc(CN5CCCC5)cc4CC[C@H]3[C@@H]1C[C@H](Cc1cccc(C(N)=O)c1)[C@@H]2O [Compound 40c, 3-{[(16β,17β)-17-hydroxy-3-(pyrrolidin-1-ylmethyl)estra-1,3,5(10)-trien-16-yl]methyl}benzamide]
inhibition at 0.1 µM (17β-HSD1; [3]): 1% | inhibition at 1 µM (17β-HSD1; [4]): 28%

C[C@]12CC[C@@H]3c4ccc(C(=O)N5CCCC5)cc4CC[C@H]3[C@@H]1C[C@H](Cc1cccc(C(N)=O)c1)[C@@H]2O [Compound 41c, 3-{[(16β,17β)-17-hydroxy-3-(pyrrolidin-1-ylcarbonyl)estra-1,3,5(10)-trien-16-yl]methyl}benzamide]
inhibition at 0.1 µM (17β-HSD1; read-out: Inhibition (0.1 μM)): 0% | inhibition at 1 µM (17β-HSD1): 13%

C[C@]12CC[C@@H]3c4ccc(CBr)cc4CC[C@H]3[C@@H]1C[C@H](Cc1cccc(C(N)=O)c1)[C@@H]2O [III, 3-{[(16β,17β)-3-(bromomethyl)-17-hydroxyestra-1,3,5(10)-trien-16-yl]methyl}benzamide]
inhibition at 0.01 µM (17β-HSD1; read-out: Inhibition % (0.01 μM)): 20% | inhibition at 0.1 µM (17β-HSD1; read-out: Inhibition % (0.1 μM)): 36% | inhibition at 0.1 µM (17β-HSD1; read-out: Inhibition (0.1 μM)): 19% | inhibition at 1 µM (17β-HSD1): 66%
